These results are taken from publication PMC5640650, “NatD promotes lung cancer progression by preventing histone H4 serine phosphorylation to activate Slug expression” (Nature Communications, 2017).

In data set [1] the test system is CK2α. Briefly: CK2α mRNA and protein expression, H1299 cells. The conditions noted are these: vs Scr. It counts as cell-based, human. As for the experimental part:
(§1) Cellular proteins were extracted by RIPA lysis buffer at high salt concentration (420 mM NaCl), and western blot analysis was performed in accordance with standard protocols. Scans of enhanced chemiluminescence (ECL) films showing uncropped blots are presented in Supplementary Fig. 10. […]
(§2) Total RNA from tissue samples and cultured cells was extracted using TRIzol reagent (Invitrogen). cDNAs were synthesized with a HiScript 1st Strand cDNA Synthesis Kit (Vazyme Biotech, China). Quantitative RT-PCR was performed using a FastStart Universal SYBR Green Master (Roche) according to the manufacturer’s instructions in a Rotor-Gene 6000 (Corbett Research) in a final volume of 20 μl. […]
Supplementary Figure 8. […] (a) Quantitative real-time PCR analysis of NatD and CK2α mRNA levels in scrambled and NatD-KD H1299 cells normalized to GAPDH. […]

The test system of data set [2] is LLC cells. Briefly: Expression of EMT genes, LLC cells. The format is cell-based, murine. The conditions noted are these: vs Scr. Here is the method: as §1, §2
Representative blots from three independent experiments. […] (bottom) Cell migration and invasion expressed as a percentage of Scr control. […]
Results are shown as mean ± s.d. from 5 mice; two-tailed Student’s t-test, **P<0.01 compared to Scr control. (e) Quantitative real-time PCR analysis of mRNA levels of NatD and key EMT-related genes in Scr control and NatD-KD LLC cells normalized to GAPDH. […]

For “NatD-KD2: Human NatD shRNA KD2: 5′-GGTTGAATGTCTCCATTGA-3′, lentiviral (shRNA lentiviral)”, the “levels of CK2α mRNA or protein” value in data set [1] is listed as “no increase”. Also, in data set [2], the “expression of E-cadherin” value is listed as “increased the expression”; the “expression of Slug, N-cadherin, and Vimentin” value was “decreased the expression”.
